Experimental data as given in ChEMBL document CHEMBL1201862, “PubChem BioAssay data set” (2004).
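A five-concentration, 48-hour dose response in 96-well plates underlies each endpoint, interpolated linearly between surrounding concentrations. Abbreviation: GI50, concentration required for 50% inhibition of growth.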 Calls of active or inactive are those of the source. Cut-off read from the data, not from the text of the source: active = GI50 up to about 1.1 µM and inactive = higher.

Assays:
Experiment in all cases: NCI-60 cell line screen, 48 h
[1] = system: A498
[2] = system: SNB-75
[3] = system: Malme-3M
[4] = system: LOX IMVI
[5] = system: HCT-116
[6] = system: SF-295
[7] = system: RXF 393
[8] = system: SW-620
[9] = system: NCI-H226
[10] = system: HCC 2998
[11] = system: NCI-H460
[12] = system: SN12C
[13] = system: U-251
[14] = system: HT-29
[15] = system: OVCAR-8
[16] = system: NCI-H522
[17] = system: SF-268

Measured: GI50

CC1COC(C)(C)P(=O)(c2ccccc2)C1 (centres undefined)
inactive: [1] > 100 µM | [2] 49.4 µM | [3] > 100 µM | [4] > 100 µM | [5] > 100 µM | [6] > 100 µM | [7] > 100 µM | [8] > 100 µM | [9] > 100 µM | [10] > 100 µM | [11] > 100 µM | [12] > 100 µM | [13] > 100 µM | [14] > 100 µM | [15] > 100 µM | [16] > 100 µM

CC(=O)OCc1c2ccccc2c(C)c2c1cc(F)c1ccccc12
inactive: [1] 39 µM | [2] 22.9 µM | [3] 52.2 µM | [4] 18.5 µM | [5] 31.3 µM | [6] 29.6 µM | [7] 25.6 µM | [8] 20.5 µM | [9] 25.9 µM | [10] 25.9 µM | [17] 29.8 µM | [12] 15.1 µM | [13] 23.7 µM | [14] 17.7 µM | [15] 18.9 µM | [16] 12.2 µM

C=C(c1ccccc1)[C@@]1(O)CCCC[C@H]1NC(c1ccccc1)c1ccccc1
inactive: [1] 13.9 µM | [2] 28.2 µM | [3] 16.1 µM | [4] 9.84 µM | [5] 7.93 µM | [6] 12.1 µM | [7] 7.89 µM | [8] 14.4 µM | [9] 6.97 µM | [10] 12.6 µM | [11] 13 µM | [17] 13.6 µM | [12] 14 µM | [13] 10.7 µM | [14] 11.7 µM | [15] 13.8 µM | [16] 8.85 µM

COc1ccc2c(c1)[n+]([O-])c(C(=O)CC(=O)C(=O)Nc1cccc(C)c1C)c(C)[n+]2[O-]
inactive: [3] > 100 µM | [4] > 100 µM | [5] > 100 µM | [6] > 100 µM | [7] > 100 µM | [8] > 100 µM | [9] > 100 µM | [10] > 100 µM | [11] > 100 µM | [17] > 100 µM | [12] > 100 µM | [13] > 100 µM | [14] > 100 µM | [15] > 100 µM | [16] > 100 µM

CC(=O)N1CCN(c2ccc(OCC3COC(Cn4ccnc4)(c4ccc(Cl)cc4Cl)O3)cc2)CC1 (centres undefined) [KETOCONAZOLE]
inactive: [1] 37 µM | [3] 28.8 µM | [4] 16.9 µM | [5] 22.3 µM | [7] 22.2 µM | [8] 48 µM | [9] 18.7 µM | [10] 28.4 µM | [11] 32.5 µM | [12] 52.4 µM | [14] 18.9 µM | [15] 26.7 µM | [16] 25.6 µM

Cc1ccc(/C=N\NC2c3cc(Cl)ccc3Nc3nc(O)nc(C)c32)cc1 (centres undefined)
inactive: [2] > 100 µM | [3] > 100 µM | [4] > 100 µM | [5] 46.8 µM | [6] > 100 µM | [7] > 100 µM | [8] 67.8 µM | [9] > 100 µM | [10] 95.7 µM | [11] > 100 µM | [17] > 100 µM | [12] 65.3 µM | [13] > 100 µM | [14] > 100 µM | [15] 72.6 µM | [16] > 100 µM

Nc1ccc(C(=O)NN2C(=O)C(Cl)C2c2ccc(O)cc2)cc1 (centres undefined)
inactive: [1] 36 µM | [2] 26.5 µM | [3] 18.5 µM | [4] 9.27 µM | [5] 19.2 µM | [6] 33 µM | [8] 23.3 µM | [9] 25.4 µM | [11] 19.3 µM | [17] 13.4 µM | [12] 20.1 µM | [13] 16.1 µM | [14] 24.7 µM | [15] 26.5 µM | [16] 11.6 µM

C[C@]12CC[C@H](O)CC1=CC[C@@H]1C2CC[C@]2(C)C(=O)NC(=O)CC12 (some centres undefined)
inactive: [1] > 100 µM | [2] > 100 µM | [3] 92.5 µM | [4] 65.9 µM | [5] 53.7 µM | [6] > 100 µM | [7] > 100 µM | [8] 47.8 µM | [9] > 100 µM | [10] > 100 µM | [11] 48.6 µM | [17] 65.9 µM | [12] 69 µM | [13] > 100 µM | [14] 82.2 µM | [15] 45.6 µM | [16] 63 µM

COc1ccc(Cn2c(C)nc3c2C(=O)c2ccccc2C3=O)cc1
inactive: [2] 11.2 µM | [3] 9.46 µM | [4] 2.52 µM | [5] 3.74 µM | [6] 9.48 µM | [7] 14 µM | [8] 8.07 µM | [9] 14.3 µM | [10] 18.8 µM | [11] 2.38 µM | [17] 4.49 µM | [12] 13.9 µM | [13] 6.32 µM | [14] 4.94 µM | [15] 7.01 µM | [16] 6.01 µM

CC(=O)C(CN(C(C)C)C(C)C)C(c1ccccc1)c1c(O)c2ccccc2oc1=O (centres undefined)
inactive: [1] > 100 µM | [2] 16.7 µM | [3] > 100 µM | [4] > 100 µM | [5] > 100 µM | [6] > 100 µM | [7] 60.1 µM | [8] > 100 µM | [9] > 100 µM | [11] > 100 µM | [17] > 100 µM | [12] > 100 µM | [13] 56.2 µM | [14] > 100 µM | [15] > 100 µM | [16] > 100 µM

COC(=O)C1=C(c2cc(OC)c(OC)c(OC)c2)OC(c2cc(OC)c(OC)c(OC)c2)C1 (centres undefined)
inactive: [1] 24.1 µM | [2] 23.7 µM | [3] 31.3 µM | [4] 17.9 µM | [5] 17 µM | [6] 20.5 µM | [7] 33.9 µM | [8] 34.4 µM | [9] 17.1 µM | [10] 20.1 µM | [11] 28.4 µM | [17] 46.2 µM | [12] 19.2 µM | [13] 20.5 µM | [14] 24.3 µM | [15] 32.1 µM

CC(=O)CC(=O)Nc1ccc(OS(N)(=O)=O)cc1
inactive: [1] > 100 µM | [2] > 100 µM | [3] > 100 µM | [5] > 100 µM | [6] > 100 µM | [7] > 100 µM | [8] > 100 µM | [9] > 100 µM | [10] > 100 µM | [11] > 100 µM | [17] > 100 µM | [12] > 100 µM | [13] > 100 µM | [14] > 100 µM | [15] > 100 µM | [16] > 100 µM

CC1(C)C=C(N2CCN(C3=CC(C)(C)NC(C)(C)C3)CC2)CC(C)(C)N1
inactive: [1] > 100 µM | [2] > 100 µM | [4] > 100 µM | [5] > 100 µM | [6] > 100 µM | [8] > 100 µM | [10] > 100 µM | [11] > 100 µM | [17] > 100 µM | [12] > 100 µM | [13] > 100 µM | [14] > 100 µM | [15] > 100 µM | [16] > 100 µM

CCOC(=O)/C(=C\c1ccc(OCc2ccccc2)c(OC)c1)C(=O)c1ccccc1
inactive: [3] 16.7 µM | [4] 15.9 µM | [5] 17.5 µM | [6] 22.3 µM | [8] 18.4 µM | [9] 25.7 µM | [10] 36.1 µM | [12] 23 µM | [13] 17.3 µM | [15] > 10 µM | [16] 17.7 µM

CC(CC[C@@H](C)C1CCC2[C@@H]3CC(O)C4CC(O)[C@@H](O)C[C@]4(C)C3CC[C@@]21C)C(C)(C)C (some centres undefined)
inactive: [1] > 100 µM | [2] > 100 µM | [3] > 100 µM | [4] > 100 µM | [5] > 100 µM | [6] > 100 µM | [7] > 100 µM | [8] > 100 µM | [9] > 100 µM | [10] > 100 µM | [11] > 100 µM | [17] > 100 µM | [12] > 100 µM | [13] > 100 µM | [14] > 100 µM | [15] > 100 µM

Cc1ccc(N2C(=O)/C(=C3\Sc4c(nc(C)n(C)c4=O)N3c3ccccc3)SC2=S)cc1
inactive: [1] 30.1 µM | [2] 28.6 µM | [4] > 100 µM | [5] 64.7 µM | [6] 52.7 µM | [7] 18.7 µM | [8] > 100 µM | [9] 26 µM | [10] > 100 µM | [11] 19.1 µM | [17] 34.6 µM | [12] 43.4 µM | [13] 42.7 µM | [14] > 100 µM | [15] 27.9 µM | [16] > 100 µM

COc1ccc(CCNCc2cccc(OC)c2OC)cc1OC
inactive: [2] > 100 µM | [3] > 100 µM | [4] > 100 µM | [6] > 100 µM | [7] > 100 µM | [8] > 100 µM | [10] > 100 µM | [11] > 100 µM | [17] > 100 µM | [12] > 100 µM | [14] 88.7 µM | [15] > 100 µM | [16] > 100 µM
